Results from ChEMBL document CHEMBL3580659, “One-pot multicomponent synthesis of indole incorporated thiazolylcoumarins and their antibacterial, anticancer and DNA cleavage studies” (2015).

Assays:
Format in all cases: functional
U-251 [1] = assay: Cytotoxicity against human U251 cells assessed as cell growth level at 100 uM after 48 hrs by sulforhodamine B assay
LOX IMVI [2] = assay: Cytotoxicity against human LOXIMVI cells assessed as cell growth level at 100 uM after 48 hrs by sulforhodamine B assay
OVCAR-3 [3] = assay: Cytotoxicity against human OVCAR3 cells assessed as cell growth level at 100 uM after 48 hrs by sulforhodamine B assay
SN12C = assay: Cytotoxicity against human SN12C cells assessed as cell growth level at 100 uM after 48 hrs by sulforhodamine B assay
NCI-H226 [4] = assay: Cytotoxicity against human NCI-H226 cells assessed as cell growth level at 10 nM after 48 hrs by sulforhodamine B assay
NCI-H460 [5] = assay: Cytotoxicity against human NCI-H460 cells assessed as cell growth level at 10 nM after 48 hrs by sulforhodamine B assay
HCT-15 = assay: Cytotoxicity against human HCT15 cells assessed as cell growth level at 10 nM after 48 hrs by sulforhodamine B assay
KM12 [6] = assay: Cytotoxicity against human KM12 cells assessed as cell growth level at 10 nM after 48 hrs by sulforhodamine B assay
SNB-75 = assay: Cytotoxicity against human SNB75 cells assessed as cell growth level at 10 nM after 48 hrs by sulforhodamine B assay
Malme-3M = assay: Cytotoxicity against human MALME-3M cells assessed as cell growth level at 10 nM after 48 hrs by sulforhodamine B assay
OVCAR-3 [7] = assay: Cytotoxicity against human OVCAR3 cells assessed as cell growth level at 10 nM after 48 hrs by sulforhodamine B assay
BT-549 [8] = assay: Cytotoxicity against human BT549 cells assessed as cell growth level at 10 nM after 48 hrs by sulforhodamine B assay
T47D = assay: Cytotoxicity against human T47D cells assessed as cell growth level at 10 nM after 48 hrs by sulforhodamine B assay
CCRF-CEM = assay: Cytotoxicity against human CCRF-CEM cells assessed as cell growth level at 100 nM after 48 hrs by sulforhodamine B assay
NCI-H226 [9] = assay: Cytotoxicity against human NCI-H226 cells assessed as cell growth level at 100 nM after 48 hrs by sulforhodamine B assay
NCI-H460 [10] = assay: Cytotoxicity against human NCI-H460 cells assessed as cell growth level at 100 nM after 48 hrs by sulforhodamine B assay
KM12 [11] = assay: Cytotoxicity against human KM12 cells assessed as cell growth level at 100 nM after 48 hrs by sulforhodamine B assay
U-251 [12] = assay: Cytotoxicity against human U251 cells assessed as cell growth level at 100 nM after 48 hrs by sulforhodamine B assay
M14 = assay: Cytotoxicity against human M14 cells assessed as cell growth level at 100 nM after 48 hrs by sulforhodamine B assay
Bacillus subtilis = assay: Antibacterial activity against Bacillus subtilis assessed as bacterial growth inhibition at 50 ug/ml after 24 hrs by cup-plate agar diffusion method; settings: read-out: IZ
NCI-H226 [13] = assay: Cytotoxicity against human NCI-H226 cells assessed as cell growth level at 10 uM after 48 hrs by sulforhodamine B assay
BT-549 [14] = assay: Cytotoxicity against human BT549 cells assessed as cell growth level at 100 nM after 48 hrs by sulforhodamine B assay
K562 [15] = assay: Cytotoxicity against human K562 cells assessed as cell growth level at 1 uM after 48 hrs by sulforhodamine B assay
NCI-H23 = assay: Cytotoxicity against human NCI-H23 cells assessed as cell growth level at 1 uM after 48 hrs by sulforhodamine B assay
NCI-H522 = assay: Cytotoxicity against human NCI-H522 cells assessed as cell growth level at 1 uM after 48 hrs by sulforhodamine B assay
SF-295 = assay: Cytotoxicity against human SF295 cells assessed as cell growth level at 10 uM after 48 hrs by sulforhodamine B assay
SK-MEL-2 = assay: Cytotoxicity against human SK-MEL-2 cells assessed as cell growth level at 10 uM after 48 hrs by sulforhodamine B assay
IGROV-1 = assay: Cytotoxicity against human IGROV1 cells assessed as cell growth level at 10 uM after 48 hrs by sulforhodamine B assay
A498 = assay: Cytotoxicity against human A498 cells assessed as cell growth level at 10 uM after 48 hrs by sulforhodamine B assay
UO-31 = assay: Cytotoxicity against human UO31 cells assessed as cell growth level at 10 uM after 48 hrs by sulforhodamine B assay
SF-268 = assay: Cytotoxicity against human SF268 cells assessed as cell growth level at 1 uM after 48 hrs by sulforhodamine B assay
SK-MEL-28 = assay: Cytotoxicity against human SK-MEL-28 cells assessed as cell growth level at 1 uM after 48 hrs by sulforhodamine B assay
786-0 = assay: Cytotoxicity against human 786-0 cells assessed as cell growth level at 1 uM after 48 hrs by sulforhodamine B assay
DU-145 = assay: Cytotoxicity against human DU145 cells assessed as cell growth level at 1 uM after 48 hrs by sulforhodamine B assay
HL-60(TB) = assay: Cytotoxicity against human HL-60(TB) cells assessed as cell growth level at 100 uM after 48 hrs by sulforhodamine B assay
K562 [16] = assay: Cytotoxicity against human K562 cells assessed as cell growth level at 100 uM after 48 hrs by sulforhodamine B assay
MOLT-4 [17] = assay: Cytotoxicity against human MOLT4 cells assessed as cell growth level at 100 uM after 48 hrs by sulforhodamine B assay
HOP-62 = assay: Cytotoxicity against human HOP62 cells after 48 hrs by sulforhodamine B assay; settings: HOP-62, 48 h
HT-29 = assay: Cytotoxicity against human HT-29 cells assessed as cell growth level at 100 uM after 48 hrs by sulforhodamine B assay
LOX IMVI [18] = assay: Cytotoxicity against human LOXIMVI cells after 48 hrs by sulforhodamine B assay
MDA-MB-231 = assay: Cytotoxicity against human MDA-MB-231/ATCC cells after 48 hrs by sulforhodamine B assay; settings: MDA-MB-231, 48 h
MOLT-4 [19] = assay: Cytotoxicity against human MOLT4 cells assessed as cell growth level at 10 nM after 48 hrs by sulforhodamine B assay
HOP-92 = assay: Cytotoxicity against human HOP92 cells assessed as cell growth level at 10 nM after 48 hrs by sulforhodamine B assay
[20] = read-out: LC50 (the source's name)
[21] = read-out: pLC50 (the source's name) (converted)

Q: Which Activity (U-251 [1]) does the source give for `O=c1oc2ccccc2cc1-c1csc(N/N=C/c2c[nH]c3ccccc23)n1` here?
A: -89%

Q: What about the Activity (LOX IMVI [2]) of the same compound?
A: -45%

Q: And the Activity (OVCAR-3 [3])?
A: -2%

Q: What about the Activity (SN12C) of the same compound?
A: -51%

Q: And the Activity (NCI-H226 [4])?
A: 98%

Q: And the Activity (NCI-H460 [5])?
A: 79%

Q: And the Activity (HCT-15)?
A: 95%

Q: What about the Activity (KM12 [6]) of the same compound?
A: 99%

Q: What about the Activity (SNB-75) of the same compound?
A: 94%

Q: What about the Activity (Malme-3M) of the same compound?
A: 100%

Q: And the Activity (OVCAR-3 [7])?
A: 99%

Q: What about the Activity (BT-549 [8]) of the same compound?
A: 95%

Q: What about the Activity (T47D) of the same compound?
A: 101%

Q: What about the Activity (CCRF-CEM) of the same compound?
A: 98%

Q: What about the Activity (NCI-H226 [9]) of the same compound?
A: 104%

Q: What about the Activity (NCI-H460 [10]) of the same compound?
A: 93%

Q: And the Activity (KM12 [11])?
A: 98%

Q: What about the Activity (U-251 [12]) of the same compound?
A: 108%

Q: What about the Activity (M14) of the same compound?
A: 92%

Q: And the zone of inhibition at 50 µg/mL (Bacillus subtilis)?
A: 18 mm

Q: What about the Activity (NCI-H226 [13]) of the same compound?
A: 42.82%

Q: What about the Activity (BT-549 [14]) of the same compound?
A: 88%

Q: What about the Activity (K562 [15]) of the same compound?
A: 100%

Q: What about the Activity (NCI-H23) of the same compound?
A: 83%

Q: And the Activity (NCI-H522)?
A: 103%

Q: What about the Activity (SF-295) of the same compound?
A: -25.04%

Q: And the Activity (SK-MEL-2)?
A: -9.49%

Q: What about the Activity (IGROV-1) of the same compound?
A: 0.26%

Q: And the Activity (A498)?
A: 6.72%

Q: What about the Activity (UO-31) of the same compound?
A: -90.51%

Q: What about the Activity (SF-268) of the same compound?
A: 86%

Q: And the Activity (SK-MEL-28)?
A: 93%

Q: And the Activity (786-0)?
A: 80%

Q: And the Activity (DU-145)?
A: 80%

Q: What about the Activity (HL-60(TB)) of the same compound?
A: -23%

Q: And the Activity (K562 [16])?
A: -38%

Q: What about the Activity (MOLT-4 [17]) of the same compound?
A: -40%

Q: And the GI50 (HOP-62; read-out: GI50)?
A: 3.73 µM

Q: And the LC50 (HOP-62; read-out: LC50)?
A: > 100 µM

Q: What about the TGI (HOP-62; read-out: TGI) of the same compound?
A: 20 µM

Q: What about the GI50 (HOP-62; read-out: pGI50 (converted)) of the same compound?
A: 3.72 µM

Q: And the LC50 (HOP-62; read-out: pLC50 (converted))?
A: > 100 µM

Q: And the TGI (HOP-62; read-out: pTGI (converted))?
A: 20 µM

Q: And the Activity (HT-29)?
A: -81%

Q: What about the GI50 (LOX IMVI [18]; read-out: GI50) of the same compound?
A: 1.93 µM

Q: What about the CC50 (LOX IMVI [18]; [20]) of the same compound?
A: 6.71 µM

Q: And the TGI (LOX IMVI [18]; read-out: TGI)?
A: 3.6 µM

Q: What about the GI50 (LOX IMVI [18]; read-out: pGI50 (converted)) of the same compound?
A: 1.91 µM

Q: What about the CC50 (LOX IMVI [18]; [21]) of the same compound?
A: 6.76 µM

Q: And the TGI (LOX IMVI [18]; read-out: pTGI (converted))?
A: 3.63 µM

Q: And the GI50 (MDA-MB-231; read-out: GI50)?
A: 1.39 µM

Q: And the CC50 (MDA-MB-231; [20])?
A: 7.94 µM

Q: And the TGI (MDA-MB-231; read-out: TGI)?
A: 3.33 µM

Q: What about the GI50 (MDA-MB-231; read-out: pGI50 (converted)) of the same compound?
A: 1.38 µM

Q: What about the CC50 (MDA-MB-231; [21]) of the same compound?
A: 7.94 µM

Q: What about the TGI (MDA-MB-231; read-out: pTGI (converted)) of the same compound?
A: 3.31 µM

Q: And the Activity (MOLT-4 [19])?
A: 92%

Q: What about the Activity (HOP-92) of the same compound?
A: 100%
